Our source for the EC50 values is patent publication US20060045953A1 (priority 2004, published 2006).

The structures appear in SMILES notation.

For the first experiment, the target named is T1, hT1R1/hT1R3 umami receptor (Homo sapiens, UniProt Q7RTX0+Q7RTX1).
T1 construct: expressed in transfected cells; host or cells: HEK293 derivative stably expressing Gα15, clone I-17, expression induced with mifepristone
T1 sequence (Q7RTX1 21-841): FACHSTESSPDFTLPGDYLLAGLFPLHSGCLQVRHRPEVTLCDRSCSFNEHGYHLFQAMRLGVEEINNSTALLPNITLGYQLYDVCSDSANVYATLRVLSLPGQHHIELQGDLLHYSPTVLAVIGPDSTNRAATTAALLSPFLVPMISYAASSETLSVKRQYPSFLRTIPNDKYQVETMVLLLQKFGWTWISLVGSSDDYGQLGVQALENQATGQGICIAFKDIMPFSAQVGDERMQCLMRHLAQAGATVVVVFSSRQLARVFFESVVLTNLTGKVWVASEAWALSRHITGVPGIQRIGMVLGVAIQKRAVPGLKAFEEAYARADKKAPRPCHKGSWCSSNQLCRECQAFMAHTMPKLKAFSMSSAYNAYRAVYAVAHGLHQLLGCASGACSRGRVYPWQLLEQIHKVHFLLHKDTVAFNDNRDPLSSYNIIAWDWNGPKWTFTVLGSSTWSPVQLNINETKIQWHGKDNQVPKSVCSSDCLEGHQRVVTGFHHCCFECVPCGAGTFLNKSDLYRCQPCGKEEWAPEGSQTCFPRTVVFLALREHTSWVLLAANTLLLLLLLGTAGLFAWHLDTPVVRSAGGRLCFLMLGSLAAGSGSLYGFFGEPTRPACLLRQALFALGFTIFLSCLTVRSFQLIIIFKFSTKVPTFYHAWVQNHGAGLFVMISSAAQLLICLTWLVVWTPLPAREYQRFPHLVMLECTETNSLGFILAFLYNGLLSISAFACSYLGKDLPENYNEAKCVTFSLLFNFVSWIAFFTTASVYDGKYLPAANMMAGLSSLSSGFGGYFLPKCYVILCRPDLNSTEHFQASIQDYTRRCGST
T1 sequence (Q7RTX0 21-852): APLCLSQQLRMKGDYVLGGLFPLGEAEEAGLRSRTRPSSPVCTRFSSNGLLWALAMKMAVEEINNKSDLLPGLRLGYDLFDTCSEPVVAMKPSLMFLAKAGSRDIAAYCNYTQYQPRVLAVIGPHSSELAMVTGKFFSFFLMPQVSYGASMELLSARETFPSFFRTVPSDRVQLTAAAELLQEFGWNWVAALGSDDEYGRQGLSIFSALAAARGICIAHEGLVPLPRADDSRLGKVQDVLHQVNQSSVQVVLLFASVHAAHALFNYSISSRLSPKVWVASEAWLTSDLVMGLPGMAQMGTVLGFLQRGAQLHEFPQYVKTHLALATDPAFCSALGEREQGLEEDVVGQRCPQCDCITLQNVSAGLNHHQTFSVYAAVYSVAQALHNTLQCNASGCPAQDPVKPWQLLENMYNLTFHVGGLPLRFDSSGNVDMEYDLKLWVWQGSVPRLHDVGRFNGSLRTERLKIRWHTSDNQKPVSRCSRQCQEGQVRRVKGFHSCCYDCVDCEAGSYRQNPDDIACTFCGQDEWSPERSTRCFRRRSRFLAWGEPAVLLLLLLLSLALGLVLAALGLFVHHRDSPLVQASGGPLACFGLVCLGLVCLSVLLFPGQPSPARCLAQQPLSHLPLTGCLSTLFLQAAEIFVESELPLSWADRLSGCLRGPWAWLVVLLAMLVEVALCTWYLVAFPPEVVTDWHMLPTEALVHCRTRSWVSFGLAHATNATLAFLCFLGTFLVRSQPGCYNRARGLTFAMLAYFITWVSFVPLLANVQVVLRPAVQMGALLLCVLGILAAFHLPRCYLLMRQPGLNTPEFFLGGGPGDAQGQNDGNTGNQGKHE
Briefly: In vitro hT1R1/hT1R3 umami taste receptor activation assay (FLIPR, dose response). The format is cell-based. The settings on record: Table A, Umami Amides; read-out: Umami EC50. From the text:
In order to identify new savory flavoring agents and enhancers, including compounds with savory agonist and enhancer activities (dual activity), the compounds of Formula (I) were screened in primary assays and secondary assays including compound dose response and enhancement assay. In a primary assay for potential ability to modulate umami taste, amide compounds of Formula (I) that can be either savory flavoring agents in their own right or flavor enhancers of MSG are identified and scores of their activities are given as percentage of the maximum MSG intensity (%). In compound dose response, an EC50 is calculated to reflect the potency of the compound as a savory agonist or enhancer.
An HEK293 cell line derivative (See e.g., Chandrashekar, et al., Cell (2000) 100: 703-711) which stably expresses Gα15 and hT1R1/hT1R3 under an inducible promoter (see WO 03/001876 A2) was used to identify compounds with savory tasting properties.
For dose-responses analysis, stimuli were presented in duplicates at 10 different concentrations ranging from 1.5 nM to 30 μM. Activities were normalized to the response obtained with 60 mM monosodium glutamate, a concentration that elicits maximum receptor response. […] Identical results were obtained when analyzing the dose-response data using commercially available software for non-linear regression analysis such as GraphPad PRISM (San Diego, Calif.).
As to `CCCC(NC(=O)c1ccc2c(c1)OCO2)C(=O)OC` (centres unmarked) [Example A49, 2-[(Benzo[1,3]dioxole-5-carbonyl)-amino]-pentanoic acid methyl ester], the EC50 stood at 1540 nM.

For `C=Cc1ccc(C(=O)NC(CCC)CCC)cc1` [Example A78, N-(heptan-4-yl)-4-vinylbenzamide], the EC50 was 460 nM.

`COc1ccc(C(=O)N[C@H]2CCCc3ccccc32)cc1C` [Example A109, (S)-4-methoxy-3-methyl-N-(1,2,3,4-tetrahydronaphthalen-1-yl)benzamide]: the EC50 turned out to be 80 nM.

Turning to `CCCC(NC(=O)c1ccc2nc(C)oc2c1)C(C)C` (centres unmarked) [Example A26, 2-methyl-N-(2-methylhexan-3-yl)benzo[d]oxazole-6-carboxamide], the EC50 was found to be 1600 nM.

For the compound `CCCC(CCC)NC(=O)c1cccc(C(F)(F)F)c1` [Example A70, N-(heptan-4-yl)-3-(trifluoromethyl)benzamide], the EC50 was 330 nM.

Take `CCCc1ccc(C(=O)N[C@H](CC(C)C)C(=O)OC)cc1` [Example A91, (R)-methyl 4-methyl-2-(4-propylbenzamido)pentanoate]: the EC50 worked out at 620 nM.

`CCCC(CC)NC(=O)c1ccc2c(c1)OCO2` (centres unmarked) [Example A53, N-(hexan-3-yl)benzo[d][1,3]dioxole-5-carboxamide]: the EC50 worked out at 1830 nM.

As for `COc1ccc(C(=O)NC(C)CCc2ccccc2)cc1C` (centres unmarked) [Example A76, 4-methoxy-3-methyl-N-(4-phenylbutan-2-yl)benzamide], the EC50 is 400 nM.

Still in this experiment, the particulars now being: Table C, Umami Ureas; read-out: Umami EC50.
For `CC(C)c1ccc(NC(=O)NCCc2ccccn2)cc1` [Example C6, 1-(4-isopropylphenyl)-3-(2-(pyridin-2-yl)ethyl)urea], the EC50 was 980 nM.

As to `COc1ccccc1NC(=O)NC1CCCCC1C` (centres unmarked) [Example C12, 1-(2-methoxyphenyl)-3-(2-methylcyclohexyl)urea], the EC50 stood at 1670 nM.

Staying with this experiment, now noted: opposite enantiomers compared; read-out: AFFINITY FOR T1R1/T1R3 SAVORY RECEPTOR EC50 UM.
Turning to `COc1cccc(C(=O)N[C@@H]2CCCc3ccccc32)c1N` [drawing 29, (R)-2-amino-3-methoxy-N-(1,2,3,4-tetrahydronaphthalen-1-yl)benzamide], the EC50 is 90 nM.

The experiment is the same for the next values; noted with them: read-out: EC50 for activation of a hT1R1/hT1R3 umami receptor expressed in an HEK293 cell line.
For `COc1ccc2c(c1)CCC2NC(=O)c1ccc(OC)c(C)c1` (racemic) [Example 121-2, (R/S)-4-Methoxy-N-(5-methoxy-2,3-dihydro-1H-inden-1-yl)-3-methylbenzamide], the EC50 is 80 nM.

In the case of `CCCC(CCC)NC(=O)c1ccc2c(c1)OC(C)O2` (centres unmarked) [Example 18, N-(heptan-4-yl)-2-methylbenzo[d][1,3]dioxole-5-carboxamide], the EC50 is 100 nM.

As for `COC(=O)[C@@H](CC(C)C)NC(=O)/C=C/c1cccs1` [Example 83, 4-Methyl-2-(3-thiophen-2-yl-acryloylamino)-pentanoic acid methyl ester], the EC50 worked out at 590 nM.

For `COc1ccc(CNC(=O)C(=O)NC(C)Cc2ccccn2)c(OC)c1` (centres unmarked) [Example 143, N-(2,4-Dimethoxybenzyl)-N′-(1-(Pyridin-2-yl)propan-2-yl)oxalamide], the EC50 was 400 nM.

Regarding `CCCC(CCC)NC(=O)c1cnc(C)c(C)n1` [Example 95, 5,6-dimethylpyrazine-2-carboxylic acid (1-propylbutyl)amide], the EC50 was determined as 1010 nM.

Consider `COCOC[C@@H](CC(C)C)NC(=O)c1ccc(C)c(C)c1` [Example 72, (R)-N-(1-(methoxymethoxy)-4-methylpentan-2-yl)-3,4-dimethylbenzamide], for which the EC50 is 1060 nM.

In the case of `CCCC(CCC)NC(=O)c1ccc2c(c1)OC(CC(=O)OCC)O2` (centres unmarked) [Example 19, Ethyl 2-(5-(heptan-4-ylcarbamoyl)benzo[d][1,3]dioxol-2-yl)acetate], the EC50 amounted to 14000 nM.

In the case of `COc1ccc(CNC(=O)c2ccc(-c3ccccn3)s2)c(OC)c1` [Example 109, 5-Pyridin-2-yl-thiophene-2-carboxylic acid 2,4-dimethoxy-benzylamide], the EC50 is 2860 nM.

`COC(=O)[C@@H](CC(C)C)NC(=O)c1ccc(SC)cc1` [Example 50, (R)-methyl 4-methyl-2-(4-(methylthio)benzamido)pentanoate]: the EC50 was 160 nM.
